In ChEMBL document CHEMBL1126045, “Alanine series of ovine corticotropin releasing factor (oCRF): a structure-activity relationship study” (J Med Chem, 1992) one finds Relative potency data, which are given here for 27 compounds.

Sequence of Corticotropin releasing factor receptor (Rattus norvegicus) (P35353 whole entry, looked up): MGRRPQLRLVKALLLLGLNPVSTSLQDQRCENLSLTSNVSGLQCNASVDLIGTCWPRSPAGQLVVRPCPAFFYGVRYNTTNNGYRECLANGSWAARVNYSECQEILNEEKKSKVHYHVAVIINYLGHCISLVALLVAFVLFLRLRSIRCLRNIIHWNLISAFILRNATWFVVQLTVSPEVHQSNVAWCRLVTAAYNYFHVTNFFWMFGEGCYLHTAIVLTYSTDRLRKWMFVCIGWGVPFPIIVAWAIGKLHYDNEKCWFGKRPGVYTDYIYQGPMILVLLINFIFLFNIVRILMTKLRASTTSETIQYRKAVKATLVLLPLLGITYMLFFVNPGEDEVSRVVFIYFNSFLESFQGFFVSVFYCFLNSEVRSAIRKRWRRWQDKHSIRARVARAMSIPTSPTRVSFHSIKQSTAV
Sequence of Corticotropin releasing factor receptor (Rattus norvegicus) (P47866 whole entry, looked up): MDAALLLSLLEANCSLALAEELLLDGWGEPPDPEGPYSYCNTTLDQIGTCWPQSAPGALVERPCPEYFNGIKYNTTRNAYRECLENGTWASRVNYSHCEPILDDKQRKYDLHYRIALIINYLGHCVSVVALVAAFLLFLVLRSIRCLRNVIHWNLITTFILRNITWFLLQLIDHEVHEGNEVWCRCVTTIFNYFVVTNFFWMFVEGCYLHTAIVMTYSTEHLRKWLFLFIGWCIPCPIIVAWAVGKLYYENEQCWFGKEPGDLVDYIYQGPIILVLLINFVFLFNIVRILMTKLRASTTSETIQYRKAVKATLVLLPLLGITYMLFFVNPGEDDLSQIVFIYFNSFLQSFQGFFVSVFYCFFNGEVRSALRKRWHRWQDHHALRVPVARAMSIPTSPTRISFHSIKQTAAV

The assay has as its target Corticotropin releasing factor receptor (Rattus norvegicus) (UniProt P47866+P35353). Put plainly: In vitro ability (peptide) to stimulate ACTH release by rat anterior pituitary cells relative to Ovine corticotropin releasing factor (oCRF). Set-up: unit not given here. The note with it: Pituitary gland cell. In kind it is cell-based.
Take `CC[C@H](C)[C@H](NC(=O)[C@H](C)NC(=O)[C@@H]1CCCN1C(=O)[C@H](CCC(=O)O)NC(=O)[C@H](CCC(N)=O)NC(=O)[C@@H](N)CO)C(=O)N[C@@H](CO)C(=O)N[C@@H](CC(C)C)C(=O)N[C@@H](CC(=O)O)C(=O)N[C@@H](CC(C)C)C(=O)N[C@H](C(=O)N[C@@H](Cc1ccccc1)C(=O)N[C@@H](Cc1c[nH]cn1)C(=O)N[C@@H](CC(C)C)C(=O)N[C@@H](CC(C)C)C(=O)N[C@@H](CCCN=C(N)N)C(=O)N[C@@H](CCC(=O)O)C(=O)N[C@H](C(=O)N[C@@H](CC(C)C)C(=O)N[C@@H](CCC(=O)O)C(=O)N[C@@H](CCSC)C(=O)N[C@H](C(=O)N[C@@H](CCCCN)C(=O)N[C@@H](C)C(=O)N[C@@H](CC(=O)O)C(=O)N[C@@H](CCC(N)=O)C(=O)N[C@@H](CC(C)C)C(=O)N[C@@H](C)C(=O)N[C@@H](CCC(N)=O)C(=O)N[C@@H](CCC(N)=O)C(=O)N[C@@H](C)C(=O)N[C@@H](Cc1c[nH]cn1)C(=O)N[C@@H](CO)C(=O)N[C@@H](CC(N)=O)C(=O)N[C@@H](CCCN=C(N)N)C(=O)N[C@@H](CCCCN)C(=O)N[C@@H](CC(C)C)C(=O)N[C@@H](CC(C)C)C(=O)N[C@@H](CC(=O)O)C(=O)N[C@H](C(=O)N[C@@H](C)C(N)=O)[C@@H](C)CC)[C@@H](C)O)C(C)C)[C@@H](C)O`: the Relative potency is 0.6. `CC[C@H](C)[C@H](NC(=O)[C@H](CC(=O)O)NC(=O)[C@H](CC(C)C)NC(=O)[C@H](CC(C)C)NC(=O)[C@H](CCCCN)NC(=O)[C@H](CCCN=C(N)N)NC(=O)[C@H](CC(N)=O)NC(=O)[C@H](CO)NC(=O)[C@H](Cc1c[nH]cn1)NC(=O)[C@H](C)NC(=O)[C@H](CCC(N)=O)NC(=O)[C@H](CCC(N)=O)NC(=O)[C@H](C)NC(=O)[C@H](CC(C)C)NC(=O)[C@H](CCC(N)=O)NC(=O)[C@H](CC(=O)O)NC(=O)[C@H](C)NC(=O)[C@H](CCCCN)NC(=O)[C@@H](NC(=O)[C@H](CCSC)NC(=O)[C@H](CCC(=O)O)NC(=O)[C@H](CC(C)C)NC(=O)[C@@H](NC(=O)[C@H](CCC(=O)O)NC(=O)[C@H](CCCN=C(N)N)NC(=O)[C@H](CC(C)C)NC(=O)[C@H](CC(C)C)NC(=O)[C@H](Cc1c[nH]cn1)NC(=O)[C@H](Cc1ccccc1)NC(=O)[C@@H](NC(=O)[C@H](C)NC(=O)[C@H](CC(=O)O)NC(=O)[C@H](CC(C)C)NC(=O)[C@H](CO)NC(=O)[C@@H](NC(=O)[C@@H]1CCCN1C(=O)[C@@H]1CCCN1C(=O)[C@H](CCC(=O)O)NC(=O)[C@H](CCC(N)=O)NC(=O)[C@@H](N)CO)[C@@H](C)CC)[C@@H](C)O)C(C)C)[C@@H](C)O)C(=O)N[C@@H](C)C(N)=O` displayed a Relative potency of 0.006.

The compound `CC[C@H](C)[C@H](NC(=O)[C@H](CC(=O)O)NC(=O)[C@H](CC(C)C)NC(=O)[C@H](CC(C)C)NC(=O)[C@H](CCCCN)NC(=O)[C@H](CCCN=C(N)N)NC(=O)[C@H](CC(N)=O)NC(=O)[C@H](CO)NC(=O)[C@H](Cc1c[nH]cn1)NC(=O)[C@H](C)NC(=O)[C@H](CCC(N)=O)NC(=O)[C@H](CCC(N)=O)NC(=O)[C@H](C)NC(=O)[C@H](CC(C)C)NC(=O)[C@H](CCC(N)=O)NC(=O)[C@H](CC(=O)O)NC(=O)[C@H](C)NC(=O)[C@H](CCCCN)NC(=O)[C@@H](NC(=O)[C@H](CCSC)NC(=O)[C@H](CCC(=O)O)NC(=O)[C@H](CC(C)C)NC(=O)[C@@H](NC(=O)[C@H](CCC(=O)O)NC(=O)[C@H](CCCN=C(N)N)NC(=O)[C@H](CC(C)C)NC(=O)[C@H](CC(C)C)NC(=O)[C@H](Cc1c[nH]cn1)NC(=O)[C@H](Cc1ccccc1)NC(=O)[C@@H](NC(=O)[C@H](CC(C)C)NC(=O)[C@H](C)NC(=O)[C@H](CC(C)C)NC(=O)[C@H](CO)NC(=O)[C@@H](NC(=O)[C@@H]1CCCN1C(=O)[C@@H]1CCCN1C(=O)[C@H](CCC(=O)O)NC(=O)[C@H](CCC(N)=O)NC(=O)[C@@H](N)CO)[C@@H](C)CC)[C@@H](C)O)C(C)C)[C@@H](C)O)C(=O)N[C@@H](C)C(N)=O` returned a Relative potency of 0.004. The same measure for `CC[C@H](C)[C@H](NC(=O)[C@H](CC(=O)O)NC(=O)[C@H](CC(C)C)NC(=O)[C@H](CC(C)C)NC(=O)[C@H](CCCCN)NC(=O)[C@H](CCCN=C(N)N)NC(=O)[C@H](CC(N)=O)NC(=O)[C@H](CO)NC(=O)[C@H](Cc1c[nH]cn1)NC(=O)[C@H](C)NC(=O)[C@H](CCC(N)=O)NC(=O)[C@H](CCC(N)=O)NC(=O)[C@H](C)NC(=O)[C@H](CC(C)C)NC(=O)[C@H](CCC(N)=O)NC(=O)[C@H](CC(=O)O)NC(=O)[C@H](C)NC(=O)[C@H](CCCCN)NC(=O)[C@@H](NC(=O)[C@H](CCSC)NC(=O)[C@H](CCC(=O)O)NC(=O)[C@H](CC(C)C)NC(=O)[C@@H](NC(=O)[C@H](CCC(=O)O)NC(=O)[C@H](CCCN=C(N)N)NC(=O)[C@H](CC(C)C)NC(=O)[C@H](CC(C)C)NC(=O)[C@H](Cc1c[nH]cn1)NC(=O)[C@H](Cc1ccccc1)NC(=O)[C@@H](NC(=O)[C@H](CC(C)C)NC(=O)[C@H](CC(=O)O)NC(=O)[C@H](CC(C)C)NC(=O)[C@H](CO)NC(=O)[C@H](C)NC(=O)[C@@H]1CCCN1C(=O)[C@@H]1CCCN1C(=O)[C@H](CCC(=O)O)NC(=O)[C@H](CCC(N)=O)NC(=O)[C@@H](N)CO)[C@@H](C)O)C(C)C)[C@@H](C)O)C(=O)N[C@@H](C)C(N)=O`: 0.004; for `CC[C@H](C)[C@H](NC(=O)[C@H](CC(=O)O)NC(=O)[C@H](CC(C)C)NC(=O)[C@H](CC(C)C)NC(=O)[C@H](CCCCN)NC(=O)[C@H](CCCN=C(N)N)NC(=O)[C@H](CC(N)=O)NC(=O)[C@H](CO)NC(=O)[C@H](Cc1c[nH]cn1)NC(=O)[C@H](C)NC(=O)[C@H](CCC(N)=O)NC(=O)[C@H](CCC(N)=O)NC(=O)[C@H](C)NC(=O)[C@H](CC(C)C)NC(=O)[C@H](CCC(N)=O)NC(=O)[C@H](CC(=O)O)NC(=O)[C@H](C)NC(=O)[C@H](CCCCN)NC(=O)[C@@H](NC(=O)[C@H](CCSC)NC(=O)[C@H](CCC(=O)O)NC(=O)[C@H](CC(C)C)NC(=O)[C@@H](NC(=O)[C@H](CCC(=O)O)NC(=O)[C@H](CCCN=C(N)N)NC(=O)[C@H](CC(C)C)NC(=O)[C@H](CC(C)C)NC(=O)[C@H](Cc1c[nH]cn1)NC(=O)[C@H](Cc1ccccc1)NC(=O)[C@H](C)NC(=O)[C@H](CC(C)C)NC(=O)[C@H](CC(=O)O)NC(=O)[C@H](CC(C)C)NC(=O)[C@H](CO)NC(=O)[C@@H](NC(=O)[C@@H]1CCCN1C(=O)[C@@H]1CCCN1C(=O)[C@H](CCC(=O)O)NC(=O)[C@H](CCC(N)=O)NC(=O)[C@@H](N)CO)[C@@H](C)CC)C(C)C)[C@@H](C)O)C(=O)N[C@@H](C)C(N)=O`: 0.4; for `CC[C@H](C)[C@H](NC(=O)[C@H](CC(=O)O)NC(=O)[C@H](CC(C)C)NC(=O)[C@H](CC(C)C)NC(=O)[C@H](CCCCN)NC(=O)[C@H](CCCNC(=N)N)NC(=O)[C@H](CC(N)=O)NC(=O)[C@H](CO)NC(=O)[C@H](Cc1cnc[nH]1)NC(=O)[C@H](C)NC(=O)[C@H](CCC(N)=O)NC(=O)[C@H](CCC(N)=O)NC(=O)[C@H](C)NC(=O)[C@H](CC(C)C)NC(=O)[C@H](CCC(N)=O)NC(=O)[C@H](CC(=O)O)NC(=O)[C@H](C)NC(=O)[C@H](CCCCN)NC(=O)[C@@H](NC(=O)[C@H](CCSC)NC(=O)[C@H](CCC(=O)O)NC(=O)[C@H](CC(C)C)NC(=O)[C@@H](NC(=O)[C@H](CCC(=O)O)NC(=O)[C@H](CCCNC(=N)N)NC(=O)[C@H](CC(C)C)NC(=O)[C@H](CC(C)C)NC(=O)[C@H](Cc1cnc[nH]1)NC(=O)[C@H](Cc1ccccc1)NC(=O)[C@@H](NC(=O)[C@H](CC(C)C)NC(=O)[C@H](CC(=O)O)NC(=O)[C@H](CC(C)C)NC(=O)[C@H](CO)NC(=O)[C@@H](NC(=O)[C@@H]1CCCN1C(=O)[C@@H]1CCCN1C(=O)[C@H](CCC(=O)O)NC(=O)[C@H](CCC(N)=O)NC(=O)[C@@H](N)CO)[C@@H](C)CC)[C@@H](C)O)C(C)C)[C@@H](C)O)C(=O)N[C@@H](C)C(N)=O`: 1. On to “H-SQEPPISLDLTAHLLREVLEMTKADQLAQQAHSNRKLLDIA-NH2”, for which the Relative potency was found to be 0.006.

Compound “H-SQEPPISLDLTFALLREVLEMTKADQLAQQAHSNRKLLDIA-NH2” had a Relative potency of 0.14. Consider “H-SQEPPISLDLTFHLAREVLEMTKADQLAQQAHSNRKLLDIA-NH2”, for which the Relative potency was 0.09. With “H-SQEPPISLDLTFHLLAEVLEMTKADQLAQQAHSNRKLLDIA-NH2”, the Relative potency amounted to 0.02. Turning to “H-SQEPPISLDLTFHLLRAVLEMTKADQLAQQAHSNRKLLDIA-NH2”, the Relative potency is 0.6.

“H-SQEPPISLDLTFHLLREALEMTKADQLAQQAHSNRKLLDIA-NH2” registered a Relative potency of 0.5. “H-SQEPPISLDLTFHLLREVAEMTKADQLAQQAHSNRKLLDIA-NH2”: the Relative potency worked out at 0.09.

With “H-SQEPPISLDLTFHLLREVLEATKADQLAQQAHSNRKLLDIA-NH2”, the Relative potency was determined as 0.4.

As for “H-SQEPPISLDLTFHLLREVLEMAKADQLAQQAHSNRKLLDIA-NH2”, the Relative potency was 3.4. To “H-SQEPPISLDLTFHLLREVLEMTAADQLAQQAHSNRKLLDIA-NH2” belongs 0.28. With “H-SQEPPISLDLTFHLLREVLEMTKAAQLAQQAHSNRKLLDIA-NH2”, the Relative potency was 1.7.

“H-SQEPPISLDLTFHLLREVLEMTKADALAQQAHSNRKLLDIA-NH2” returned a Relative potency of 1.1. To “H-SQEPPISLDLTFHLLREVLEMTKADQLAQAAHSNRKLLDIA-NH2” belongs 0.8. On to “H-SQEPPISLDLTFHLLREVLEMTKADQLAQQAASNRKLLDIA-NH2”, for which the Relative potency was 4.5. Turning to “H-SQEPPISLDLTFHLLREVLEMTKADQLAQQAHANRKLLDIA-NH2”, the Relative potency amounted to 2.

“H-SQEPPISLDLTFHLLREVLEMTKADQLAQQAHSARKLLDIA-NH2” displayed a Relative potency of 1.1.

Compound “H-SQEPPISLDLTFHLLREVLEMTKADQLAQQAHSNAKLLDIA-NH2” showed a Relative potency of 0.02.

“H-SQEPPISLDLTFHLLREVLEMTKADQLAQQAHSNRALLDIA-NH2”: the Relative potency was found to be 0.8.

Turning to “H-SQEPPISLDLTFHLLREVLEMTKADQLAQQAHSNRKALDIA-NH2”, the Relative potency was 0.7.

“H-SQEPPISLDLTFHLLREVLEMTKADQLAQQAHSNRKLLAIA-NH2” gave a Relative potency of 1.8.

The compound “H-SQEPPISLDLTFHLLREVLEMTKADQLAQQAHSNRKLLDAA-NH2” showed a Relative potency of 1.7.
